# Results reported in US12180252B2, “Peptide derived from PEP27 peptide and uses thereof” (priority 2021, dated 2024).
# Where two headings read alike, the source gives them in different places. Where a SMILES comes first, the peptide text is derived from it.
# Key:
# P. aeruginosa 4891 [1] = assay type: cell-based, Pseudomonas aeruginosa
# Source text: (§1) Biofilms may form on a wide variety of surfaces, including living or dead surfaces, and biofilm-associated bacteria are more tolerant to antibiotics than planktonic bacterial cells, making them antibiotic-resistant. To assess the efficacy of PEP27-2 against biofilms, we observed the anti-biofilm activity of PEP27-2 in S. aureus (ATCC 25923 and CCARM 3090), E. coli (ATCC 25922 and CCARM 1238), and P. aeruginosa (ATCC 27853 and 4891).
# (§2) Specifically, among the strains listed in Table 3 above, Staphylococcus aureus, E. coli and Pseudomonas erujinosa, respectively, were cultured in each medium to a mid-log phase, diluted to a cell concentration of 5×10^4 cells/100 μl, and then, inoculated into a micro-plate (SPL). Then, PEP27-2 peptide was diluted 1/10 times with 10 mM PBS solution (pH 7.2) and 10 μl of the solution was added to each well, followed by incubation at 37° C. for 24 hours. After completely removing the supernatant, the solution was fixed with 100% methanol for 15 minutes, stained with a crystal violet dye solution for 1 hour, washed 3 times, and then dissolved in 95% ethanol, followed by measuring the absorbance at a wavelength of 595 nm using a micro titration plate reader, thereby determining a biofilm minimal inhibitory concentration value for each strain.
# P. aeruginosa ATCC27853 = assay type: cell-based, Pseudomonas aeruginosa
# Source text: as §1, §2
# E. coli CCARM1229 = assay type: cell-based, Escherichia coli; conditions: 37° C., 24 hours
# E. coli CCARM1238 [2] = assay type: cell-based, Escherichia coli; conditions: E. coli CCARM1238, antibiotics-tolerant; 37° C., 18 hours
# Procedure: (§3) In order to evaluate the antimicrobial activity of the peptides prepared by the method of above 1, a minimal inhibitory concentration (MIC) value as the minimum concentration of a peptide, in which cells are not divided, was measured.
# (§4) Specifically, the strains shown in Table 3 below were purchased, cultured in a medium having a constitutional composition suitable for each strain to a mid-log phase, and then diluted to a concentration of 2×10^4 cells/100 μl to prepare the product on a micro-titration plate (Nunc, USA). Then, PEP27, PEP27-1, PEP27-2 or PEP27-5 peptide synthesized in the above 1 was added to each well by serial dilution ½ times, followed by incubation at 37° C. for 18 hours.
# E. coli ATCC27325 [3] = assay type: cell-based, Escherichia coli
# Procedure: as §3, §4
# [4] = test system: Sa. typhimurium CCARM8009; assay type: cell-based, Salmonella typhimurium; conditions: Sa. typhimurium CCARM8009, antibiotics-tolerant; 37° C., 18 hours
# Procedure: as §3, §4
# [5] = test system: Sa. typhimurium CCARM8007; assay type: cell-based, Salmonella typhimurium; conditions: Sa. typhimurium CCARM8007, antibiotics-tolerant; 37° C., 18 hours
# Procedure: as §3, §4
# Sa. typhimurium KCTC1926 = assay type: cell-based, Salmonella typhimurium
# Procedure: as §3, §4
# P. aeruginosa 4007 [6] = assay: microbe, parasite or virus in culture
# Summary of the method: (§5)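 Peptide growth inhibition measured by twofold dilution against mid-log bacteria (2×10^4 cells/100 μl), 37° C, 18 hours; endpoint was absence of cell division. Meropenem, ceftazidime, ceftriaxone and vancomycin were run in parallel.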
# P. aeruginosa 4891 [7] = assay: microbe, parasite or virus in culture
# Summary of the method: as §5
# S. aureus CCARM3089 = assay: microbe, parasite or virus in culture; conditions: S. aureus CCARM3089, antibiotics-tolerant; 37° C., 18 hours
# Summary of the method: as §5
# E. coli ATCC25922 = assay type: cell-based, Escherichia coli
# Source text: as §1, §2
# E. coli CCARM1238 [8] = assay type: cell-based, Escherichia coli; conditions: 37° C., 24 hours
# Source text: as §1, §2
# E. coli ATCC27325 [9] = assay type: cell-based, Escherichia coli; remark: listed apart in the source
# Source text: as §1, §2
# P. aeruginosa 4007 [10] = assay type: cell-based, Pseudomonas aeruginosa
# plasmid DNA (pRSETB) = assay: Peptide-DNA binding by agarose gel electrophoresis; conditions: peptide/DNA ratios 0.25:1 to 4:1, 300 ng plasmid DNA
# Procedure: Specifically, 300 ng of plasmid DNA (pRSETB) was reacted with the peptide by a relative ratio (reactions were performed at peptide/DNA ratios of DNA alone, 0.25:1, 0.5:1, 1:1, 1.5:1, 2:1, 3:1, 4:1, respectively) at 37° C. for 10 minutes, followed by conducting electrophoresis on a 1% agarose gel, staining the same with ethidium bromide (EtBr) and monitoring through UV.
# E. coli ATCC 25922 = assay: Cytoplasmic membrane depolarization (DiSC3-5); assay type: cell-based, Escherichia coli; conditions: 4×MIC
# Procedure: We also used E. coli cells and the membrane potential-sensitive cyanine dye 3,3′-dipropylthiadicarbocyanine iodide (DiSC3-5) to test the ability of PEP27 and PEP27-2 to depolarize Gram-negative bacterial membranes (FIG. 15B to FIG. 15E).
# Depolarization of the cytoplasmic membrane by the peptides was measured using the membrane potential-sensitive dye DiSC3-5 (Merck KGaA, n=4 per condition) with intact E. coli cells as previously described. 66 Mid-log-phase E. coli ATCC 25922 cells were washed with 5 mM HEPES buffer containing 20 mM glucose and resuspended to an OD600 of 0.05 in 5 mM HEPES buffer containing 20 mM glucose and 0.1 M KCl. The cell suspension was incubated with 1 μM DiSC3-5 for 1 h. […] Fluorescence was measured at excitation and emission wavelengths of 622 and 670 nm, respectively.
# When the bacterial cytoplasmic membrane is disrupted, the membrane potential dissipates E. coli, and DiSC3-5 is released into the culture medium, resulting in a fluorescence increase. After stabilization for 10 min by treatment with DiSC3-5, AMPs were added, and the plasma membrane potential of E. coli was confirmed by monitoring the change in fluorescence intensity for another 30 min.
smiles,measurement,setting,value
CSCC[C@H](N)C(=O)N[C@@H](Cc1c[nH]c2ccccc12)C(=O)N[C@@H](CCCCN)C(=O)N[C@@H](Cc1c[nH]c2ccccc12)C(=O)N[C@@H](Cc1ccccc1)C(=O)N[C@@H](Cc1c[nH]cn1)C(=O)N[C@@H](CC(N)=O)C(=O)N[C@H](C(=O)N[C@@H](CC(C)C)C(=O)N[C@@H](CO)C(=O)N[C@@H](Cc1c[nH]c2ccccc12)C(=O)NCC(=O)N[C@@H](Cc1c[nH]c2ccccc12)C(=O)N[C@@H](CC(C)C)C(=O)N[C@@H](CC(C)C)C(=O)N[C@@H](C)C(=O)N[C@@H](CC(=O)O)C(=O)N[C@@H](CCCCN)C(=O)N[C@@H](CCCNC(=N)N)C(=O)N1CCC[C@H]1C(=O)N[C@@H](C)C(=O)N[C@@H](CCCNC(=N)N)C(=O)N[C@@H](CC(=O)O)C(=O)N[C@@H](Cc1ccc(O)cc1)C(=O)N[C@@H](CC(N)=O)C(=O)N[C@@H](CCCNC(=N)N)C(=O)N[C@@H](CCCCN)C(N)=O)C(C)C [PEP27-2] (H-MWKWFHNVLSWGWLLADKRPARDYNRK-NH2),Biofilm minimal inhibitory concentration,"P. aeruginosa 4891 [1]; 4891, 24 h",8 µM
same,maximum percent biofilm inhibition,P. aeruginosa ATCC27853; ATCC27853,81.2%
same,Biofilm minimal inhibitory concentration,"P. aeruginosa ATCC27853; ATCC27853, 24 h",8 µM
same,Biofilm minimal inhibitory concentration,E. coli CCARM1229,8 µM
same,Minimal inhibitory concentration,E. coli CCARM1238 [2],4 µM
same,Minimal inhibitory concentration,"E. coli ATCC27325 [3]; ATCC27325, 18 h",4 µM
same,Minimal inhibitory concentration,[4],4 µM
same,Minimal inhibitory concentration,[5],4 µM
same,Minimal inhibitory concentration,"Sa. typhimurium KCTC1926; KCTC1926, 18 h",8 µM
same,Minimal inhibitory concentration,"P. aeruginosa 4007 [6]; 4007, 18 h",4 µM
same,Minimal inhibitory concentration,"P. aeruginosa 4891 [7]; 4891, 18 h",4 µM
same,Minimal inhibitory concentration,S. aureus CCARM3089,4 µM
same,maximum percent biofilm inhibition,E. coli ATCC25922; ATCC25922,91.8%
same,Biofilm minimal inhibitory concentration,"E. coli ATCC25922; ATCC25922, 24 h",8 µM
same,Biofilm minimal inhibitory concentration,E. coli CCARM1238 [8],8 µM
same,Biofilm minimal inhibitory concentration,"E. coli ATCC27325 [9]; ATCC27325, 24 h",8 µM
same,Biofilm minimal inhibitory concentration,"P. aeruginosa 4007 [10]; 4007, 24 h",8 µM
"CC[C@H](C)[C@H](NC(=O)CN)C(=O)NCC(=O)N[C@@H](C)C(=O)N[C@H](C(=O)N[C@@H](CC(C)C)C(=O)N[C@@H](CCCCN)C(=O)N[C@H](C(=O)N[C@@H](CC(C)C)C(=O)N[C@H](C(=O)N[C@H](C(=O)NCC(=O)N[C@@H](CC(C)C)C(=O)N1CCC[C@H]1C(=O)N[C@@H](C)C(=O)N[C@@H](CC(C)C)C(=O)N[C@H](C(=O)N[C@@H](CO)C(=O)N[C@@H](Cc1c[nH]c2ccccc12)C(=O)N[C@H](C(=O)N[C@@H](CCCCN)C(=O)N[C@@H](CCCNC(=N)N)C(=O)N[C@@H](CCCCN)C(=O)N[C@@H](CCCNC(=N)N)C(=O)N[C@@H](CCC(N)=O)C(=O)N[C@@H](CCC(N)=O)C(N)=O)[C@@H](C)CC)[C@@H](C)CC)[C@@H](C)O)[C@@H](C)O)C(C)C)C(C)C [Melittin, reference compound]",Biofilm minimal inhibitory concentration,"P. aeruginosa 4891 [1]; P. aeruginosa 4891, 37° C., 24 hours",8 µM
same,Biofilm minimal inhibitory concentration,"P. aeruginosa ATCC27853; P. aeruginosa ATCC27853, 37° C., 24 hours",4 µM
same,Biofilm minimal inhibitory concentration,E. coli CCARM1229,4 µM
same,Minimal inhibitory concentration,E. coli CCARM1238 [2],4 µM
same,Minimal inhibitory concentration,"E. coli ATCC27325 [3]; E. coli ATCC27325, Gram-negative, 37° C., 18 hours",2 µM
same,Minimal inhibitory concentration,[4],4 µM
same,Minimal inhibitory concentration,[5],4 µM
same,Minimal inhibitory concentration,"Sa. typhimurium KCTC1926; Sa. typhimurium KCTC1926, Gram-negative, 37° C., 18 hours",4 µM
same,binding to DNA (gel electrophoresis),plasmid DNA (pRSETB),not bound to any DNA
same,Minimal inhibitory concentration,"P. aeruginosa 4007 [6]; P. aeruginosa 4007, antibiotics-tolerant, 37° C., 18 hours",2 µM
same,Minimal inhibitory concentration,"P. aeruginosa 4891 [7]; P. aeruginosa 4891, antibiotics-tolerant, 37° C., 18 hours",2 µM
same,Minimal inhibitory concentration,S. aureus CCARM3089,2 µM
same,Biofilm minimal inhibitory concentration,"E. coli ATCC25922; E. coli ATCC25922, 37° C., 24 hours",4 µM
same,Biofilm minimal inhibitory concentration,E. coli CCARM1238 [8],4 µM
same,Biofilm minimal inhibitory concentration,"E. coli ATCC27325 [9]; E. coli ATCC27325, 37° C., 24 hours",4 µM
same,Biofilm minimal inhibitory concentration,"P. aeruginosa 4007 [10]; P. aeruginosa 4007, 37° C., 24 hours",4 µM
same,DiSC3-5 fluorescence intensity (membrane depolarization),E. coli ATCC 25922,~140
